Measurements reported in publication PMC11530130, “Peripherally restricted PICK1 inhibitor mPD5 ameliorates pain behaviors in murine inflammatory and neuropathic pain models” (JCI Insight, 2024).
Several values for one entry are separate records, joined by “and”; a condition that tells them apart may be missing. Equal entries are not always repeated.

Key:
[1] = system: mice, spared nerve injury (SNI) model; experiment: SNI model 18 weeks after surgery, von Frey, sustained s.c. administration; format: in vivo, mouse; set-up: von Frey threshold, Fig 7C, individual mice: unit not given here; settings: for duration of effect on mechanical hypersensitivity: SNI 18 weeks after surgery
Procedure: Repeated and sustained administration of mPD5 in the SNI model. […]
For the first experiment with sustained administration of mPD5 (Figure 7C), the mice underwent a baseline von Frey reading as described in the “Mechanically-evoked pain (von Frey).”-section and SNI surgery as described in “Induction of neuropathic pain (SNI model).”-section. Approximately 18 weeks (125 days) after SNI surgery, hyperalgesia was confirmed with von Frey. On the same day, mice were injected s.c. with 10 μmol/kg mPD5 and evoked pain was tested again at 1 hour after injection. Then, mice were injected s.c. with either 2+2+2 μmol/kg mPD5 (group A) or PBS (group B) once an hour for 3 hours. At 4,5 hours after the 10 μmol/kg mPD5 injection paw withdrawal threshold was measured again followed by a s.c. injection of 2 μmol/kg mPD5 in all animals. The PWT was measured again at 6 hours +7 hours + 8 hours + 9 hours + 10 hours + 11 hours + 22 hours + 23 hours + 25 hours + 27 hours + 49 hours + 121 hours after the initial 10 μmol/kg mPD5 injection performed on day 125. […]

[2] = system: mice, CFA model of inflammatory pain; experiment: CFA model, Hargreaves test (thermally evoked pain); format: in vivo, mouse; settings: s.c. 10 μmol/kg
Procedure: Induction of inflammatory pain (CFA model).
Injury was induced on the right hind paw, whereas the contralateral left hind paw was used as internal control of the C57BL/6J male and female mice (Janvier, France). The inflammatory pain was induced by injection of 50 μL undiluted Complete Freund’s Adjuvant (CFA) (F5881, Sigma) unilaterally into the intraplantar surface of the right hind paw, whereas control mice were injected with the same amount of 0.9 % saline (B. Braun, Germany). All intraplantar injections were performed with an insulin needle (0.3 mL BD Micro-Fine) while the animal was under isoflurane anaesthesia (2%) for maximum 60 seconds. Von Frey was applied up to 11 days after unilateral CFA injection depending on the experiment. (For Figure 3A, the experiment was run in cohort with Figure 1A of (9)).
Induction of neuropathic pain (SNI model). […]
Post-surgical analgesia included s.c. injection of 5 mg/kg carprofen (Carprosan vet, 50 mg/mL mixed 1:25 in sterile ddH2O, Dechra, Le Vet Beheer B.V., Netherlands, Batch: 050520) right after surgery and the following day. Post-surgical care included daily severity scoring for four days, and medical clips removed. X-ray imaging (IVIS Lumina XR Apparatus, Caliper Life Sciences, Belgium) was conducted to estimate the relative femoral bone density of the ipsilateral femur at baseline and at the experimental endpoint. The test battery of the CIBP model was carried out 45 or 90 min after morphine and mPD5 administration respectively to accommodate the peak efficacy […]
Mechanically evoked pain (von Frey test).
Unless otherwise specified, von Frey occurred as described in the following. Animals were habituated to the experimental room for a minimum of 60 min before initiation of the experiment. Mechanical paw withdrawal threshold (PWT) was determined by von Frey measurements of both hind paws. Von Frey filaments ranging from 0.04 to 2 g (g = gram- […]
Filaments in ascending order were applied to the frontocentral plantar surface of the hind paws.
Mice were placed in PVC plastic boxes (11.5 cm x 14 cm) on a wire mesh and allowed minimum 20 min habituation prior of experiment initiation. Each von Frey hair was applied five times with adequate resting periods between each application and number of withdrawals recorded. The withdrawal threshold was determined as the von Frey filament eliciting at least three positive trials out of the five applications in two consecutive filaments. A positive trial was defined as sudden paw withdrawal, flinching and/or paw licking induced by the filament.
For the CIBP model, two habituation sessions were performed on separated days with mice placed in the von Frey equipment for 1-1.5 hours in the presence of the experimenter on day one and random von Frey pocking with the 0.6 g filament on day two. Von Frey monofilaments (North Coast Touch Test, North Coast Medical, Inc.) with target forces of 0.04g, 0.07g, 0.16g, […]
down method” (PWT=10Xf+kδ) starting with the 0.6 g filament. Positive response was defined as; withdrawal, shaking or grooming of paw following a 2-3 second stimulation. In case, of unclear response, stimulus was repeated after 10-15 seconds.
For the STZ model, the mechanical threshold response of the injected mice was measured with […]
injection of test compounds on day 14, mechanical threshold was measured at 1 hour, 2 hours, 4 hours and 6 hours and again on day 15. […]
Thermally evoked pain (Hargreaves test).
A baseline Hargreaves test was performed on day 0 before inflammatory pain was induced as described in section 2.13. In the Hargreaves test, the mouse was placed in a container on a glass table and left to habituate for at least 15 min. Using the Hargreaves apparatus, a heat beam from beneath was directed towards the hind paws of the mouse, and the paw withdrawal time […]
was registered automatically. The cut off was set to maximum 30 seconds to avoid skin injury and the experiment was repeated 5 times for each paw with at least five min in between […]
measurements. […]

SMILES: CCCCCCCCCCCCCC(=O)N(CCOCCOCCC(=O)N[C@@H](Cc1c[nH]cn1)C(=O)N[C@@H](Cc1c[nH]c2ccccc12)C(=O)N[C@@H](CC(C)C)C(=O)N[C@@H](CCCCN)C(=O)N[C@H](C(=O)O)C(C)C)CCOCCOCCC(=O)N[C@@H](Cc1c[nH]cn1)C(=O)N[C@@H](Cc1c[nH]c2ccccc12)C(=O)N[C@@H](CC(C)C)C(=O)N[C@@H](CCCCN)C(=O)N[C@H](C(=O)O)C(C)C [mPD5, myristoyl-NPEG4-(HWLKV)2]
- von Frey threshold, contralateral paw, Fig 7C, individual mice ([1]; A-contra, time 9 post første inj og time 4 post sidste inj): 1.4 (3×) and 1 (5×)
- von Frey threshold, contralateral paw, Fig 7C, individual mice ([1]; A-contra, time 10 post første inj og time 5 post sidste inj): 1 (4×) and 1.4 (3×) and 0.6
- von Frey threshold, contralateral paw, Fig 7C, individual mice ([1]; A-contra, time 11 post første inj og time 6 post sidste inj): 1.4 (2×) and 2 (2×) and 1 (4×)
- von Frey threshold, contralateral paw, Fig 7C, individual mice ([1]; A-contra, time 22 post første inj og time 17 post sidste inj): 1.4 (4×) and 0.6 and 1 (3×)
- von Frey threshold, contralateral paw, Fig 7C, individual mice ([1]; A-contra, time 23 post første inj og time 18 post sidste inj): 1.4 (6×) and 0.6 and 1
- von Frey threshold, contralateral paw, Fig 7C, individual mice ([1]; A-contra, time 25 post første inj og time 20 post sidste inj): 1 (7×) and 1.4
- von Frey threshold, contralateral paw, Fig 7C, individual mice ([1]; A-contra, time 27 post første inj og time 22 post sidste inj): 1.4 (3×) and 1
- von Frey threshold, contralateral paw, Fig 7C, individual mice ([1]; B-contra, time 9 post første inj og time 4 post sidste inj): 1 (4×) and 1.4 (3×) and 2
- von Frey threshold, contralateral paw, Fig 7C, individual mice ([1]; B-contra, time 10 post første inj og time 5 post sidste inj): 1.4 (4×) and 2 (2×) and 1 (2×)
- von Frey threshold, contralateral paw, Fig 7C, individual mice ([1]; B-contra, time 11 post første inj og time 6 post sidste inj): 1 (2×) and 2 (2×) and 1.4 (4×)
- von Frey threshold, contralateral paw, Fig 7C, individual mice ([1]; B-contra, time 22 post første inj og time 17 post sidste inj): 1.4 (3×) and 1 (2×) and 2 (3×)
- von Frey threshold, contralateral paw, Fig 7C, individual mice ([1]; B-contra, time 23 post første inj og time 18 post sidste inj): 1 (2×) and 2 (3×) and 1.4 (2×) and 0.6
- von Frey threshold, contralateral paw, Fig 7C, individual mice ([1]; B-contra, time 25 post første inj og time 20 post sidste inj): 1.4 (5×) and 1 and 2 and 0.6
- duration of effect on mechanical hypersensitivity ([1]; 10 + 2 + 2 + 2 + 2 μmol/kg s.c., 1 hour between injections (Group A), from first injection): 25 h
- duration of effect on mechanical hypersensitivity ([1]; without consecutive administration (reference, 10 + 0 + 0 + 0 + 2 μmol/kg)): 1 h
- von Frey threshold, Fig 7C, individual mice ([1]; group A, time 9 post første inj og time 4 post sidste inj): 2 and 1.4 and 0.6 and 0.4 (2×) and 1 (3×)
- von Frey threshold, Fig 7C, individual mice ([1]; group A, time 10 post første inj og time 5 post sidste inj): 1.4 (2×) and 2 and 0.4 (3×) and 0.6 and 1
- von Frey threshold, Fig 7C, individual mice ([1]; group A, time 11 post første inj og time 6 post sidste inj): 1.4 and 1 (3×) and 0.16 and 0.4 and 0.6 (2×)
- von Frey threshold, Fig 7C, individual mice ([1]; group A, time 22 post første inj og time 17 post sidste inj): 0.6 (2×) and 1 (2×) and 0.16 (2×) and 0.4 and 1.4
- von Frey threshold, Fig 7C, individual mice ([1]; group A, time 23 post første inj og time 18 post sidste inj): 1.4 and 0.6 (2×) and 0.16 and 0.07 (2×) and 1 and 0.4
- von Frey threshold, Fig 7C, individual mice ([1]; group A, time 25 post første inj og time 20 post sidste inj): 0.16 (2×) and 2 and 0.6 (3×) and 0.4 and 1.4
- von Frey threshold, Fig 7C, individual mice ([1]; group A, time 27 post første inj og time 22 post sidste inj): 0.4
- von Frey threshold, Fig 7C, individual mice ([1]; group B, time 9 post første inj og time 4 post sidste inj): 1 and 0.4 (3×) and 0.07 (2×) and 0.6 and 0.16
- von Frey threshold, Fig 7C, individual mice ([1]; group B, time 10 post første inj og time 5 post sidste inj): 0.4 (3×) and 0.16 (2×) and 0.07 (3×)
- von Frey threshold, Fig 7C, individual mice ([1]; group B, time 11 post første inj og time 6 post sidste inj): 0.4 (2×) and 0.16 (3×) and 0.07 (3×)
- von Frey threshold, Fig 7C, individual mice ([1]; group B, time 22 post første inj og time 17 post sidste inj): 0.16 (5×) and 0.07 (3×)
- von Frey threshold, Fig 7C, individual mice ([1]; group B, time 23 post første inj og time 18 post sidste inj): 0.16 (3×) and 0.4 (2×) and 0.07 (3×)
- von Frey threshold, Fig 7C, individual mice ([1]; group B, time 25 post første inj og time 20 post sidste inj): 0.6 and 0.16 (4×) and 0.4 and 0.07 (2×)
- von Frey threshold, Fig 7C, individual mice ([1]; group B, time 27 post første inj og time 22 post sidste inj): 0.6 and 0.07 and 0.16
- effect on the contralateral paw (Hargreaves) [2]: No effect
- effect on thermal hypersensitivity of the ipsilateral paw ([2]; 1 hour after administration): reverted
- paw withdrawal latency (Hargreaves), individual mice ([2]; contralateral paw, 1 h): 10.93 and 8.17 and 12.67 and 7.53 and 10.3 and 14.03
- paw withdrawal latency (Hargreaves), individual mice ([2]; contralateral paw, 5 h): 15.97 and 9.47 and 12.27 and 10.97 and 14.37 and 8.3
- paw withdrawal latency (Hargreaves), individual mice ([2]; contralateral paw, 21 h): 15.23 and 12.33 and 19.73 and 9.13 and 7.03 and 15.57
- paw withdrawal latency (Hargreaves), individual mice ([2]; ipsilateral paw, 1 h): 8.4 and 16.3 and 10.87 and 15.83 and 12.17 and 11.77
- paw withdrawal latency (Hargreaves), individual mice ([2]; ipsilateral paw, 5 h): 10.8 and 9.77 (2×) and 5.13 and 6.33 and 4.77
- paw withdrawal latency (Hargreaves), individual mice ([2]; ipsilateral paw, 21 h): 6.3 and 9.13 and 2.77 and 3.3 and 2.37 and 11.83
